# Experimental data taken from patent publication US20060014790A1, “Methods of treatment of amyloidosis using spirocyclohexane aspartyl-protease inhibitors” (priority 2004, published 2006).
# Several values for one entry are separate records, joined by “and”; a condition that tells them apart may be missing. Identical values can stand only once.
# Biological target: catD / beta-secretase (BACE)
# Experiment: CatD/BACE selectivity (ratio of IC50 values)
# Format: biochemical
# Details: each value is an average of four experimental runs; multiple values = more than one experiment
# Method: Selectivity was calculated as a ratio of inhibition (IC50) values in which the inhibition of beta-secretase was compared to the inhibition of other aspartyl proteases.
# In the following examples, each value is an average of four experimental runs and multiple values for one compound indicate that more than one experiment was conducted.
row,SMILES,IC50 catD/IC50 BACE
1,"CONC1CCC(NCC(O)C(Cc2cc(F)cc(F)c2)NC(C)=O)(c2cccc(C(C)(C)C)c2)CC1 (single isomer, unassigned) [196A-20 Diastereomer A, N-(4-(1-(3-tert-butylphenyl)-4-(methoxyamino)cyclohexylamino)-1-(3,5-difluorophenyl)-3-hydroxybutan-2-yl)acetamide]",5.0
2,"CONC1CCC(NCC(O)C(Cc2cc(F)cc(F)c2)NC(C)=O)(c2cccc(C(C)(C)C)c2)CC1 (single isomer, unassigned) [196A-21 Diastereomer B, N-(4-(1-(3-tert-butylphenyl)-4-(methoxyamino)cyclohexylamino)-1-(3,5-difluorophenyl)-3-hydroxybutan-2-yl)acetamide]",12.3
3,"CNC1CCC(NCC(O)C(Cc2cc(F)cc(F)c2)NC(C)=O)(c2cccc(C(C)(C)C)c2)CC1 (single isomer, unassigned) [196A-26 Diastereomer A, N-(4-(1-(3-tert-butylphenyl)-4-(methylamino)cyclohexylamino)-1-(3,5-difluorophenyl)-3-hydroxybutan-2-yl)acetamide]",>4.7
4,"CNC1CCC(NCC(O)C(Cc2cc(F)cc(F)c2)NC(C)=O)(c2cccc(C(C)(C)C)c2)CC1 (single isomer, unassigned) [196A-28 Diastereomer B, N-(4-(1-(3-tert-butylphenyl)-4-(methylamino)cyclohexylamino)-1-(3,5-difluorophenyl)-3-hydroxybutan-2-yl)acetamide]",>3.9
5,"CC(=O)NC(Cc1cc(F)cc(F)c1)C(O)CNC1(c2cccc(C(C)(C)C)c2)CCC(N)CC1 (single isomer, unassigned) [196A-29 Diastereomer A, N-(4-(1-(3-tert-butylphenyl)-4-aminocyclohexylamino)-1-(3,5-difluorophenyl)-3-hydroxybutan-2-yl)acetamide]",>8.4
6,"CC(=O)NC(Cc1cc(F)cc(F)c1)C(O)CNC1(c2cccc(C(C)(C)C)c2)CCC(N)CC1 (single isomer, unassigned) [196A-30 Diastereomer B, N-(4-(1-(3-tert-butylphenyl)-4-aminocyclohexylamino)-1-(3,5-difluorophenyl)-3-hydroxybutan-2-yl)acetamide]",>8.4
7,"CC(=O)NC(Cc1cc(F)cc(F)c1)C(O)CNC1(c2cccc(C(C)(C)C)c2)CCC(C(F)(F)F)CC1 (single isomer, unassigned) [196A-32 Diastereomer A, N-(4-(1-(3-tert-butylphenyl)-4-(trifluoromethyl)cyclohexylamino)-1-(3,5-difluorophenyl)-3-hydroxybutan-2-yl)acetamide]",1.7
8,"CC(=O)NC1CCC(NCC(O)C(Cc2cc(F)cc(F)c2)NC(C)=O)(c2cccc(C(C)(C)C)c2)CC1 (single isomer, unassigned) [196A-33 Diastereomer A, N-[3-[4-Acetylamino-1-(3-tert-butyl-phenyl)-cyclohexylamino]-1-(3,5-difluoro-benzyl)-2-hydroxy-propyl]-acetamide]",34.4
9,"CC(=O)NC(Cc1cc(F)cc(F)c1)C(O)CNC1(c2cccc(C(C)(C)C)c2)CCC(O)(CO)CC1 (single isomer, unassigned) [196A-35 Diastereomer A, N-[3-[1-(3-tert-Butyl-phenyl)-4-hydroxy-4-hydroxymethyl-cyclohexylamino]-1-(3,5-difluoro-benzyl)-2-hydroxy-propyl]-acetamide]",>7.4
10,"CC(=O)NC(Cc1cc(F)cc(F)c1)C(O)CNC1(c2cccc(C(C)(C)C)c2)CCC(O)(CO)CC1 (single isomer, unassigned) [196A-36 Diastereomer B, N-[3-[1-(3-tert-Butyl-phenyl)-4-hydroxy-4-hydroxymethyl-cyclohexylamino]-1-(3,5-difluoro-benzyl)-2-hydroxy-propyl]-acetamide]",>5.3
11,"COC(=O)NC1CCC(NCC(O)C(Cc2cc(F)cc(F)c2)NC(C)=O)(c2cccc(C(C)(C)C)c2)CC1 (single isomer, unassigned) [196A-37 Diastereomer A, methyl 4-(3-acetamido-4-(3,5-difluorophenyl)-2-hydroxybutylamino)-4-(3-tert-butylphenyl)cyclohexylcarbamate]",7.7
12,"COC(=O)NC1CCC(NCC(O)C(Cc2cc(F)cc(F)c2)NC(C)=O)(c2cccc(C(C)(C)C)c2)CC1 (single isomer, unassigned) [196A-38 Diastereomer B, methyl 4-(3-acetamido-4-(3,5-difluorophenyl)-2-hydroxybutylamino)-4-(3-tert-butylphenyl)cyclohexylcarbamate]",2.6 and 2.0 and 2.3
13,"CC(=O)NC(Cc1cc(F)cc(F)c1)C(O)CNC1(c2cccc(C(C)(C)C)c2)CCC(N(O)C(C)=O)CC1 (single isomer, unassigned) [196A-39 Diastereomer A]",9.6
14,"CC(=O)NC(Cc1cc(F)cc(F)c1)C(O)CNC1(c2cccc(C(C)(C)C)c2)CCC(NS(C)(=O)=O)CC1 (single isomer, unassigned) [196A-41 Diastereomer A, N-(4-(1-(3-tert-butylphenyl)-4-(methylsulfonamido)cyclohexylamino)-1-(3,5-difluorophenyl)-3-hydroxybutan-2-yl)acetamide]",18.1
15,"CC(=O)NC(Cc1cc(F)cc(F)c1)C(O)CNC1(c2cccc(C(C)(C)C)c2)CCC(NS(C)(=O)=O)CC1 (single isomer, unassigned) [196A-42 Diastereomer B, N-(4-(1-(3-tert-butylphenyl)-4-(methylsulfonamido)cyclohexylamino)-1-(3,5-difluorophenyl)-3-hydroxybutan-2-yl)acetamide]",>3.0
16,"CC(=O)NC(Cc1cc(F)cc(F)c1)C(O)CNC1(c2cccc(C(C)(C)C)c2)CCC(NC=O)CC1 (single isomer, unassigned) [196A-43 Diastereomer A, N-(4-(1-(3-tert-butylphenyl)-4-formamidocyclohexylamino)-1-(3,5-difluorophenyl)-3-hydroxybutan-2-yl)acetamide]",84.5
17,"CNC(=O)NC1CCC(NCC(O)C(Cc2cc(F)cc(F)c2)NC(C)=O)(c2cccc(C(C)(C)C)c2)CC1 (single isomer, unassigned) [196A-45 Diastereomer A, 1-(4-(3-acetamido-4-(3,5-difluorophenyl)-2-hydroxybutylamino)-4-(3-tert-butylphenyl)cyolohexyl)-3-methylurea]",>3.5
18,"CNC(=O)NC1CCC(NCC(O)C(Cc2cc(F)cc(F)c2)NC(C)=O)(c2cccc(C(C)(C)C)c2)CC1 (single isomer, unassigned) [196A-46 Diastereomer B, 1-(4-(3-acetamido-4-(3,5-difluorophenyl)-2-hydroxybutylamino)-4-(3-tert-butylphenyl)cyclohexyl)-3-methylurea]",>1.3
19,"CC(=O)NC(Cc1cc(F)cc(F)c1)C(O)CNC1(c2cccc(C(C)(C)C)c2)CCC([S+](C)[O-])CC1 (stereo not shown) [196A-34 Mix, N-(4-(1-(3-tert-butylphenyl)-4-(methylsulfinyl)cyclohexylamino)-1-(3,5-difluorophenyl)-3-hydroxybutan-2yl)acetamide]",2.1
